Results taken from patent US10919941B2, “Functional lipid constructs” (KODE BIOTECH LIMITED, priority 2007, dated 2021).
No end group written: not given here.

How the values were obtained:
[1] = system: TAP1 serum (Taiwan Miltenberger antibody positive sample); experiment: Anti-MUT serum (TAP1) reactivity of modified RBCs (saline and AHG); assay type: cell-based, human; set-up: key: 0 or ‘−’ no agglutination; 0 or ‘−’ no agglutination; 1+ or 3=very weak agglutination; 1+ or 3=very weak agglutination; 2+ or 5=weak agglutination; 2+ or 5=weak agglutination; 3+ or 8=moderate strong agglutination; 3+ or 8=moderate strong agglutination; 4+ or 10/12=strong agglutination; 4+ or 10/12=strong agglutination; 4+ or 10/12=strong agglutination
Protocol: (§1) The suspensions are either: • 1. incubated for 2 hours at 37° C. before being washed and suspended in a cell medium for serological analysis at a concentration of 0.8 to 3% (Method 1); or • 2. incubated for 3 to 4 hours at room temperature (circa 25° C.) followed by 18 hours at 4° C. before being washed and suspended in a cell medium for serological analysis at a concentration of 0.8 to 3% (Method 2).
(§2) Serological reactions are graded or scored by either of two established systems (0 or ‘−’ no agglutination, 1+ or 3=very weak agglutination, 2+ or 5=weak agglutination, 3+ or 8=moderate strong agglutination, 4+ or 10/12=strong agglutination)

antibody negative serums = experiment: False positive reactions of modified RBCs with antibody negative serums/plasma; assay type: cell-based, human; set-up: key to Reaction score BioVue AHG, PAC samples 1-46, 49, 50, 52, 53 / Reaction score BioVue AHG, PAC sample 47 / Reaction score BioVue AHG, PAC sample 48 / Reaction score BioVue AHG, PAC sample 51 / agglutination score, T series serum 2 / agglutination score, T series serum 42 / agglutination score, T series serum 63 / agglutination score, T series serum 62 / agglutination score, T series serum 7 / agglutination score, T series serum 20 / agglutination score, T series serum 48 / agglutination score, T series serum 22 / agglutination score, T series serum 39 / agglutination score, T series serum 23 / agglutination score, T series serum 30 / agglutination score, T series serum 4 / agglutination score, T series serum 31 / agglutination score, T series serum 44 / agglutination score, T series serum 61 / agglutination score, T series serum 18 / agglutination score, T series serum 21 / agglutination score, T series serum 28 / agglutination score, T series serum 55 / agglutination score, false positive serum T18 / agglutination score, false positive serum T21 / agglutination score, false positive serum T28 / agglutination score, false positive serum T55 / agglutination score, false positive serum T78 / agglutination score, false positive serum T92: 0 or ‘−’ no agglutination; 0 or ‘−’ no agglutination; 1+ or 3=very weak agglutination; 1+ or 3=very weak agglutination; 2+ or 5=weak agglutination; 2+ or 5=weak agglutination; 3+ or 8=moderate strong agglutination; 3+ or 8=moderate strong agglutination; 4+ or 10/12=strong agglutination; 4+ or 10/12=strong agglutination; 4+ or 10/12=strong agglutination
[2] = system: natural Mi III antibody reactive human serums; experiment: Positive serum reactivity of modified RBCs in the field; assay type: cell-based; set-up: key: 0 or ‘−’ no agglutination; 0 or ‘−’ no agglutination; 1+ or 3=very weak agglutination; 1+ or 3=very weak agglutination; 2+ or 5=weak agglutination; 2+ or 5=weak agglutination; 3+ or 8=moderate strong agglutination; 3+ or 8=moderate strong agglutination; 4+ or 10/12=strong agglutination; 4+ or 10/12=strong agglutination; 4+ or 10/12=strong agglutination; conditions: 22 at 50, 17 and 24 at 200 μg/ml; 3 h RT then 18 h 4° C.
Protocol: as §1, §2

[3] = system: Miltenberger Antibody Positive Panel; experiment: Reactivity of modified RBCs against the Miltenberger Antibody Positive Panel; assay type: cell-based, human; set-up: key to score vs panel 15 TAP2 / score vs panel 4 T7202 / score vs panel 8 T5896 / score vs panel 2 T217 / score vs panel 3 T165 / score vs panel 14 TAP1 / score vs panel 10 Mia / score vs panel 11 Mur / score vs panel 12 Gam / score vs panel 6 T6025 / score vs panel 7 T8445 / score vs panel 9 MIII / score vs panel 13 BoxH / reactivity with Panel Serum #7 (T8445) / agglutination score, Panel Serum #7 (T8445): 0 or ‘−’ no agglutination; 0 or ‘−’ no agglutination; 1+ or 3=very weak agglutination; 1+ or 3=very weak agglutination; 2+ or 5=weak agglutination; 2+ or 5=weak agglutination; 3+ or 8=moderate strong agglutination; 3+ or 8=moderate strong agglutination; 4+ or 10/12=strong agglutination; 4+ or 10/12=strong agglutination; 4+ or 10/12=strong agglutination
Protocol: (§3) Red blood cells are modified by mixing 1 part by volume of washed packed red blood cells with 1 part by volume of peptide-lipid construct dispersed at a concentration of 10 to 1000 pg/ml in cell media (Celpresol™).
as §1, §2
(§4) Serological platforms used are Tube (addition of reagents and reactants into plastic or glass serology tubes and after appropriate incubations, washing and centrifugation observing reactions macroscopically by eye and a 10× magnification eyepiece and scoring) and BioVue™ (addition of reactants into cassettes containing beads (including some reactants) and after appropriate incubations and centrifugation observing the reaction patterns trapped within the Gel matrix). BioVue is the serological column agglutination platform of Ortho-Clinical Diagnostics. Diamed is the serological column agglutination platform of Diamed AG.

[4] = system: Miltenberger antibody positive sera; experiment: BioVue AHG card column agglutination serology of modified red blood cells; assay type: cell-based, human; set-up: key: 0 or ‘−’ no agglutination; 0 or ‘−’ no agglutination; 1+ or 3=very weak agglutination; 1+ or 3=very weak agglutination; 2+ or 5=weak agglutination; 2+ or 5=weak agglutination; 3+ or 8=moderate strong agglutination; 3+ or 8=moderate strong agglutination; 4+ or 10/12=strong agglutination; 4+ or 10/12=strong agglutination; 4+ or 10/12=strong agglutination; conditions: construct 50 μg/ml
Protocol: as §3, §1, §2, §4

[5] = cells modified at 50 μg/ml, 2 hour 37° C., BioVue AHG cards
[6] = larger series = 102, cells modified at 50 μg/ml, 2 hour 37° C., BioVue AHG cards
[7] = construct 50 μg/ml (2 hours, 37° C.)

M17: DOPE peptide-lipid construct: Mur peptide TYPAHTANEV, leader c, spacer CMG(2) (TYPAHTANEVC; also: DOPE peptide-lipid construct via leader Cys, spacer CMG(2))
8: agglutination score, T series serum 4 (antibody negative serums; [5]) | agglutination score, T series serum 7 (antibody negative serums; [5]) | agglutination score, T series serum 20 (antibody negative serums; [5]) | agglutination score, T series serum 22 (antibody negative serums; [5]) | agglutination score, T series serum 31 (antibody negative serums; [5]) | agglutination score, T series serum 48 (antibody negative serums; [5]) | agglutination score, T series serum 62 (antibody negative serums; [5]) | score vs Mi III reactive serum 932809044-1 [2] | score vs Mi III reactive serum 942433813-3 [2] | score vs Mi III reactive serum 942433855-3 [2] | score vs Mi III reactive serum 942753165-4 [2] | score vs Mi III reactive serum 9424292604 [2] | score vs Mi III reactive serum 9425256505 [2] | score vs panel 4 T7202 ([3]; Table 9, construct 100 μg/ml)
17%: share of negative serums with score 12-10 (antibody negative serums; n = 102 negative serum samples)
0: TAP 1 Serum, AHG score ([1]; construct 50 μg/ml) | TAP 1 Serum, Saline score ([1]; construct 50 μg/ml) | score vs Mi III reactive serum 926555294-1 [2] | score vs Mi III reactive serum 927175131-4 [2] | score vs Mi III reactive serum 927299700-1 [2] | score vs Mi III reactive serum 927516053-2 [2] | score vs Mi III reactive serum 932360876-4 [2] | score vs Mi III reactive serum 932467774-5 [2] | score vs Mi III reactive serum 942404708-4 (row interpreted other) [2] | score vs Mi III reactive serum 942423002-4 [2] | score vs Mi III reactive serum 942448627-8 [2] | score vs Mi III reactive serum 942762589-1 [2] | score vs Mi III reactive serum 9424248012 [2] | score vs Mi III reactive serum 9424396133 [2] | score vs Mi III reactive serum 9427613497 [2] | score vs Mi III reactive serum 9427615156 [2] | score vs panel 2 T217 ([3]; Table 9, construct 100 μg/ml) | score vs panel 8 T5896 ([3]; Table 9, construct 100 μg/ml) | score vs panel 9 MIII ([3]; Table 9, construct 100 μg/ml) | score vs panel 10 Mia ([3]; Table 9, construct 100 μg/ml) | score vs panel 11 Mur ([3]; Table 9, construct 100 μg/ml) | score vs panel 12 Gam ([3]; Table 9, construct 100 μg/ml) | score vs panel 15 TAP2 ([3]; Table 9, construct 100 μg/ml)
64%: share of negative serums with score 0 (antibody negative serums; n = 102 negative serum samples)
33%: % positive (antibody negative serums; T series reactives (n = 58), BioVue AHG cards)
3: agglutination score, T series serum 23 (antibody negative serums; [5]) | agglutination score, T series serum 30 (antibody negative serums; [5]) | number of negative serums with score 3 (antibody negative serums; n = 102 negative serum samples) | score vs Mi III reactive serum 912485657-9 [2] | score vs Mi III reactive serum 926190919-0 [2] | score vs Mi III reactive serum 927619701-8 [2] | score vs Mi III reactive serum 9327986660 [2] | score vs Mi III reactive serum 9328791834 [2] | score vs Mi III reactive serum S-3 [2]
18%: share of negative serums with score 8-5 (antibody negative serums; n = 102 negative serum samples)
3%: share of negative serums with score 3 (antibody negative serums; n = 102 negative serum samples)
12: agglutination score, T series serum 18 (antibody negative serums; [5]) | agglutination score, T series serum 21 (antibody negative serums; [5]) | agglutination score, T series serum 28 (antibody negative serums; [5]) | agglutination score, T series serum 55 (antibody negative serums; [5]) | agglutination score, false positive serum T18 (antibody negative serums; [6]) | agglutination score, false positive serum T21 (antibody negative serums; [6]) | agglutination score, false positive serum T28 (antibody negative serums; [6]) | agglutination score, false positive serum T55 (antibody negative serums; [6]) | agglutination score, false positive serum T78 (antibody negative serums; [6]) | agglutination score, false positive serum T92 (antibody negative serums; [6]) | score vs Mi III reactive serum 922390844-5 [2]
5: agglutination score, T series serum 39 (antibody negative serums; [5]) | score vs Mi III reactive serum 942223755-1 [2] | score vs Mi III reactive serum 942404708-4 (row interpreted Mur) [2] | score vs Mi III reactive serum 942421413-0 [2] | score vs Mi III reactive serum 942442720-2 [2] | score vs Mi III reactive serum 9325490091 [2] | score vs Mi III reactive serum 9427455417 [2]
18: number of negative serums with score 8-5 (antibody negative serums; n = 102 negative serum samples)
10: agglutination score, T series serum 2 (antibody negative serums; [5]) | agglutination score, T series serum 42 (antibody negative serums; [5]) | agglutination score, T series serum 44 (antibody negative serums; [5]) | agglutination score, T series serum 61 (antibody negative serums; [5]) | agglutination score, T series serum 63 (antibody negative serums; [5]) | score vs Mi III reactive serum 914146821-8 [2] | score vs Mi III reactive serum 9322338631 [2] | score vs Mi III reactive serum 9328118428 [2] | score vs Mi III reactive serum 9328154853 [2] | score vs panel 3 T165 ([3]; Table 9, construct 100 μg/ml) | score vs panel 6 T6025 ([3]; Table 9, construct 100 μg/ml) | score vs panel 7 T8445 ([3]; Table 9, construct 100 μg/ml) | agglutination score, Panel Serum #7 (T8445) [3, 5] | reactivity with Panel Serum #7 (T8445) [3, 7]
17: number of negative serums with score 12-10 (antibody negative serums; n = 102 negative serum samples)
65: number of negative serums with score 0 (antibody negative serums; n = 102 negative serum samples)

M35: DOPE peptide-lipid construct: MUTK peptide QTNDKHKRDT, leader c, spacer CMG(2) (QTNDKHKRDTC; also: DOPE peptide-lipid construct via leader Cys, spacer CMG(2))
0: BioVue score vs positive sample 2 T217 (T) [4] | BioVue score vs positive sample 3 T165 (Mur) [4] | BioVue score vs positive sample 4 T7202 (M) [4] | BioVue score vs positive sample 8 T5896 (M + K + Mur) [4] | score vs panel 2 T217 ([3]; Table 8, construct 50 μg/ml) | score vs panel 3 T165 ([3]; Table 8, construct 50 μg/ml) | score vs panel 4 T7202 ([3]; Table 8, construct 50 μg/ml) | score vs panel 8 T5896 ([3]; Table 8, construct 50 μg/ml) | score vs panel 15 TAP2 ([3]; Table 8, construct 50 μg/ml)
5: Reactivity with anti-MUT serum TAP1 [1, 7] | BioVue score vs TAP1 [4] | score vs panel 14 TAP1 ([3]; Table 8, construct 50 μg/ml)
